Test results reported in patent US20220267308A1, “Modulators of Excitatory Amino Acid Transporters and Methods Using Same” (The Wistar Institute of Anatomy and Biology, priority 2019, published 2022).
Read-outs that look alike come from different tables or passages of the source.

What was measured:
cortical neurons [1] = test: neuroprotection in neuronal cultures, bi-laminar approach, L-glutamate insult; format: cell-based; settings: 10 μM L-glutamate for 24 h
Description: (§1) Top: Representative images (40× magnification) of 14 DIV cortical neurons in control conditions (FIG. 2A) or subjected to insult with 10 μM L-glutamate for 24 h (FIG. 2B). […] Bottom: Representative images of cortical neurons in control conditions (FIG. 2D) or subjected to insult with OGD for 20 min (FIG. 2E). […] Quantification performed 24 h after treatments in cultures stained for MAP-2 (green) and DAPI (blue). Surviving neurons were estimated by blind counting of 10 fields/coverslips, averages of triplicate determinations±SD (ANOVA followed by Dunnet's posthoc test, *p<0.05, **<0.01, p***<0.001, compared to control, #p<0.05, ###p<0.001, compared to insult).

cortical neurons [2] = test: neuroprotection in neuronal cultures, bi-laminar approach, OGD insult; format: cell-based; settings: OGD for 20 min
Description: as §1

[3] = pilocarpine in vivo model of epilepsy; settings: osmotic pump 48 hours, final dose 4 mg/Kg, after pilocarpine 380 mg/Kg; p=0.0189
EAAT2 [4] = target: T1, EAAT2 (Homo sapiens, UniProt P43004); test: kinetic analysis of L-glutamate uptake in EAAT2-transfected COS-7 cells; format: cell-based; parameters: expressed in transfected cells; host or cells: COS-7; settings: compound 10 nM, different concentrations of glutamate
EAAT2 [5] = target: T1, EAAT2; test: glutamate uptake mediated by EAAT2-expressing COS-7 cells; settings: for EAAT2 Efficacy: bottom number of the cell
EAAT1 = target: T2, EAAT1 (Homo sapiens, UniProt P43003); test: glutamate uptake mediated by EAAT1-expressing COS-7 cells; format: cell-based; settings: for EAAT1 Efficacy: bottom number of the cell
T2 construct: expressed in transfected cells; host or cells: COS-7

EAAT3 = target: T3, EAAT3 (Homo sapiens, UniProt P43005); test: glutamate uptake mediated by EAAT3-expressing COS-7 cells; format: cell-based; settings: for EAAT3 EC50 (nM): top number of the cell
T3 construct: expressed in transfected cells; host or cells: COS-7
T3 sequence (P43005 1-524): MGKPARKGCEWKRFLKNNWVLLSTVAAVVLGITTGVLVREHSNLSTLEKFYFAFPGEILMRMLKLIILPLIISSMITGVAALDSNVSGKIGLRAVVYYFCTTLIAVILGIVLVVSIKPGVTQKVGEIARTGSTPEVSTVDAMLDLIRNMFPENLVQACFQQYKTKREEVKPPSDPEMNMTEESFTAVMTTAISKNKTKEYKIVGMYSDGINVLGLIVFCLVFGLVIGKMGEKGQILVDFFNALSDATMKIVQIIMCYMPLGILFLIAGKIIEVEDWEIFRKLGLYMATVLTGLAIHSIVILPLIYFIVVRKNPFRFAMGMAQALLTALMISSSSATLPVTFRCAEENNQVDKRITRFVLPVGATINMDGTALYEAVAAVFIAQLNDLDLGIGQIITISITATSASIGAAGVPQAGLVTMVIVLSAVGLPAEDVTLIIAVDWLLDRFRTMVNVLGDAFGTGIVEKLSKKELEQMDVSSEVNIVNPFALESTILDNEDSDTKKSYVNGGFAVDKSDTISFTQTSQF

[6] = SNL (spinal nerve ligation) model; settings: p<0.01 compared to vehicle
neuron-glia cultures = test: neuroprotection in mixed neuron-glia cultures; format: cell-based, rat
Text: Immunostaining against neuronal marker MAP-2 (green), glial maker GFAP (red), and nuclear marker DAPI (blue). Surviving neurons were estimated by blind counting of 10 fields/coverslips, averages of triplicate determinations±SD (ANOVA followed by Dunnet's posthoc test, ***p<0.001, compared to control, ###p<0.001, compared to insult). FIGS. 7A-7E show the in vitro neuroprotective properties of second and third generation compounds after glutamate and oxygen glucose deprivation insults in mixed neuron/glia cultures. […] Immunostaining against neuronal marker MAP-2 (green), glial maker GFAP (red), and nuclear marker DAPI (blue). Images taken with 30× magnification with a confocal microscope.

glia cells = settings: for Km / Vmax: Glia

T2 sequence (P43003 whole entry, the tested form may be a part): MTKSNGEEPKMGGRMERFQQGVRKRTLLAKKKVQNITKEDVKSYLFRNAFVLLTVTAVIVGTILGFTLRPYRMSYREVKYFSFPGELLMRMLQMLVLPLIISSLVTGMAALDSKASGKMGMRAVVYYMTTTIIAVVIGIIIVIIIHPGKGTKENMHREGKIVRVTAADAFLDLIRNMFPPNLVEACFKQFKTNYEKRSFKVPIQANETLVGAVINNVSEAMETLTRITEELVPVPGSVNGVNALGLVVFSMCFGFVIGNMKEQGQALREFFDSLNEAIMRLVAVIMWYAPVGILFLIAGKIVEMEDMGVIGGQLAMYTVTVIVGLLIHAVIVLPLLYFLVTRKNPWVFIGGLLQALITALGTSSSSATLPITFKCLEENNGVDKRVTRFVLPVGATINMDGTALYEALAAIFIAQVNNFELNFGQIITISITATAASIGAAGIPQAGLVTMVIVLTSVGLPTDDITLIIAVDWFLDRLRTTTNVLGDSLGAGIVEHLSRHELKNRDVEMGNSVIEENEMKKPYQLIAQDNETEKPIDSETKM
T1 sequence (P43004 whole entry, the tested form may be a part): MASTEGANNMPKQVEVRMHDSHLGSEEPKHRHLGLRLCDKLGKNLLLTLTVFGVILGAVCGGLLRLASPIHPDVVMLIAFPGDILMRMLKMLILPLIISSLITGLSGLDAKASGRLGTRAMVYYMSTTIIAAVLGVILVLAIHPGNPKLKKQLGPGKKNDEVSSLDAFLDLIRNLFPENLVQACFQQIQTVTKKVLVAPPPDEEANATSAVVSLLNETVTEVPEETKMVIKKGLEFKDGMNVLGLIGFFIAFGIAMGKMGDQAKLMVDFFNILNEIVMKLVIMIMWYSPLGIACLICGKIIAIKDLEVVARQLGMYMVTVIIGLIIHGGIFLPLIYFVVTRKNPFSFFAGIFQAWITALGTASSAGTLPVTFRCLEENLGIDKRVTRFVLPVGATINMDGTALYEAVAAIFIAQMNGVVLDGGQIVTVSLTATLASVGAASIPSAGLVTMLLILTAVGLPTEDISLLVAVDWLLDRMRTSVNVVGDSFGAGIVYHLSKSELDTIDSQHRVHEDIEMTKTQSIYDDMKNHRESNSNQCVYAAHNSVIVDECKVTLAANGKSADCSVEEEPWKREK

NC(CCCP(=O)(O)O)C(=O)O (racemic) [APV, (DL)-2-amino-5-phosphonovaleric acid, reference compound]
cell death / surviving neurons (cortical neurons [1]; compound 100 μM): attenuate cell death
cell death / surviving neurons (cortical neurons [2]; compound 100 μM): attenuated cell death

CN1CCN(C(c2cccnc2)c2nnnn2CCc2ccccc2)CC1 (centres unmarked) [DA-023, 1-methyl-4-((1-phenethyl-1H-tetrazol-5-yl)(pyridin-3-yl)methyl)piperazine]
cell death / surviving neurons (cortical neurons [1]; compound 10 nM): attenuate cell death
cell death / surviving neurons (cortical neurons [2]; compound 100 nM): attenuated cell death
neuronal death (FJC+ cell numbers) in the hilus [3]: significant reduction in the neuronal death
effect on KM (affinity for the substrate) (EAAT2 [4]): no effect on KM
effect on Vmax (in words) (EAAT2 [4]): increase in Vmax
potency on transport augmentation (dose response curve) (EAAT2 [5]; EAAT2-expressing COS-7 cells): nM range
efficacy on transport augmentation (EAAT2 [5]; EAAT2-expressing COS-7 cells, dose response curve): < 150%

COc1ccc(C(c2nnnn2CCc2ccccc2)N2CCN(C3CCCCC3)CC2)cc1OC (centres unmarked) [DA-050, 1-cyclohexyl-4-((3,4-dimethoxyphenyl)(1-phenethyl-1H-tetrazol-5-yl)methyl)piperazine]
EAAT1 Efficacy (EAAT1): 150.00 ± 21.21%
EC50 (EAAT1; top number of the cell): 46 ± 36.8 nM
EAAT3 EC50 (nM) (EAAT3): No Effect
EC50 (EAAT2 [5]): 0.5 ± 0.56 nM
EAAT2 Efficacy (EAAT2 [5]): 261.50 ± 40.30%

CN1CCN(C(c2ccncc2)c2nnnn2CCc2ccccc2)CC1 (centres unmarked) [DA-058, 1-methyl-4-((1-phenethyl-1H-tetrazol-5-yl)(pyridin-4-yl)methyl)piperazine]
EAAT1 Efficacy (EAAT1): 186.0 ± 41.01%
EC50 (EAAT1; top number of the cell): 2.24 ± 1.07 nM
EAAT3 EC50 (nM) (EAAT3): No Effect
EC50 (EAAT2 [5]): 0.4 ± 0.42 nM
EAAT2 Efficacy (EAAT2 [5]): 200.50 ± 58.60%

COc1ccc2[nH]c(=O)c(C(c3nnnn3CCc3ccccc3)N3CCN(C4CCCCC4)CC3)cc2c1 (centres unmarked) [GT949]
cell death / surviving neurons (cortical neurons [1]; compound 10 nM): attenuate cell death

NCC1(CC(=O)O)CCCCC1 [Gabapentin, reference compound]
analgesic response ([6]; 200 mg/kg): analgesic response

CN1CCN(C(C(=O)NCCc2ccc(F)cc2)c2cccnc2)CC1 (centres unmarked) [NA-005, N-(4-fluorophenethyl)-2-(4-methylpiperazin-1-yl)-2-(pyridin-3-yl)acetamide]
EAAT1 Efficacy (EAAT1): 189 ± 9.89%

CN1CCN(C(C(=O)NCCc2ccc(F)cc2)c2ccc(C#N)cc2)CC1 (centres unmarked) [NA-014, 2-(4-cyanophenyl)-N-(4-fluorophenethyl)-2-(4-methylpiperazin-1-yl)acetamide]
EAAT1 EC50 (nM) (EAAT1; top number of the cell): No Effect
EAAT3 EC50 (nM) (EAAT3): No Effect
neuronal survival (neuron-glia cultures; 100 μM L-glutamate for 24 h, co-treatment with 100 nM compound): neuroprotective effect
neuronal survival with co-application of EAAT inhibitor TBOA (neuron-glia cultures; L-glutamate insult, compound plus TBOA): abolished by co-application of EAAT inhibitor TBOA
analgesic response ([6]; 10 mg/kg): analgesic response
Km (glia cells; NA-014 100 nM): 52.5 ± 5.82 µM
Vmax (glia cells; NA-014 100 nM): 42.35 ± 1.44 pmol/well/min
Km (glia cells; NA-014 500 nM): 49.8 ± 8.3 µM
Vmax (glia cells; NA-014 500 nM): 72.76 ± 3.67 pmol/well/min
KM versus vehicle (in words) (glia cells; cultured glia cells pre-incubated with 100 nM and 500 nM): not statistically different

CN1CCN(C(c2ccc(F)nc2)c2nnnn2CCc2ccccc2)CC1 (centres unmarked) [VY-3-285, 1-((6-fluoropyridin-3-yl)(1-phenethyl-1H-tetrazol-5-yl)methyl)-4-methylpiperazine]
EAAT1 Efficacy (EAAT1): 2.75 ± 3.18 222 ± 55.72%

CN1CCN(C(c2ccc(O)nc2)c2nnnn2CCc2ccccc2)CC1 (centres unmarked) [VY-3-286, 5-((4-methylpiperazin-1-yl)(1-phenethyl-1H-tetrazol-5-yl)methyl)pyridin-2-ol]
EAAT1 Efficacy (EAAT1): 160.25 ± 27.22%
EAAT3 Efficacy (EAAT3; bottom number of the cell): 130.50 ± 2.12%
